According to US10493087B2, “Sialylation-increasing therapies for diseases associated with oxidative stress” (THE UNITED STATES OF AMERICA, AS REPRESENTED BY THE …, priority 2015, dated 2019):

What was measured:
GNE Myopathy myotubes [1] = experiment: Cell viability assay under pro-oxidants (propidium iodide/Hoechst co-staining); format: cell-based, mice; details: treated GNE Myopathy myotubes under menadione exposure
Experimental: (§1) Cell cultures and myotubes analysis: Myocytes from Gne^−/−hGNED176V-Tg mice and littermate controls were proliferated in DMEM containing 20% fetal bovine serum and 1% chicken embryo extracts in a 5% CO2 and induced to differentiation in a serum free medium, OPTIPRO™ SFM (Gibco), to make the cells hyposialylated. Where indicated, myotubes were treated with 5 mM NeuAc (Japan Food and Liquor Alliance) or 5 mM NAC (Sigma) for 72 h.
For the cell viability assay, myotubes were exposed to H2O2 for 24 h and to menadione for 6 h before staining. Nuclear staining with Hoechst 33342 (Thermo Scientific) and propidium iodide (PI) (Dojindo) was used for morphological assessment of apoptosis by fluorescence microscopy (Lee and Shacter, Journal of Biological Chemistry. 1999; 274:19792-19798). Minimum 200 nuclei were counted and cell viability was calculated by the exclusion of PI-stained nuclei from Hoechst 33342-stained nuclei.

β-amyloid = β-amyloid expression by ELISA in muscle homogenates; format: in vivo, mice; details: after NAC treatment
GNE Myopathy myotubes [2] = experiment: Intracellular ROS (DCF fluorescence) in cultured myotubes; format: cell-based, mice; details: GNE Myopathy myotubes treated with 5 mM for 72 h; mean±SEM; untreated 1113±30, littermate controls 115±15
Experimental: as §1
For the analysis of intracellular ROS, a popular fluorescence-based probe, 2′,7′-dichlorodihydrofluorescein diacetate (DCFH-DA) (Wang et al., Free Radical Biology and Medicine. 1999; 27:612-616; Halliwell and Whiteman, Br J Pharmacol. 2004; 142:231-255) was used. Cells were loaded with 5 μM DCFH-DA (Invitrogen) in PBS for an hour and recovered with phenol red-free DMEM (Gibco) for 30 min at 37° C. in a 5% CO2 incubator. Then the cells were placed in a CYTOFLUOR® Series 4000 multi-well fluorescence plate reader (PerSeptive Biosystems) with temperature maintained at 37° C. The excitation filter was set at 485 nm and the emission filter was set at 530 nm. The fluorescence from each well was captured and recorded.

Gne−/−hGNED176V-Tg mice [3] = experiment: Fiber diameter analysis of gastrocnemius muscles; format: in vivo; details: for Mean fiber diameter: gastrocnemius
Experimental: N-Acetylcysteine (NAC) Treatment Protocols: […] were randomly divided into high dose NAC (n=13), low dose NAC (n=13), or untreated control (n=17) groups. […] There was no difference in water consumption between mice receiving NAC supplemented water or regular drinking water. […] Three littermates groups (high dose NAC; n=7, low dose NAC; n=7, or untreated control; n=6) were treated in the same way. Fiber diameter analysis: Muscle tissues were processed according to previous protocols (8-10). For the morphometric analysis, we stained frozen transverse sections (6 μm) of gastrocnemius muscles with rabbit polyclonal antibody to caveolin 3 (BD Transduction Laboratories), followed by Alexa fluor-conjugated goat IgG antibody to rabbit (Invitrogen). Five randomly selected images per mouse were used to measure fiber diameters using ImageJ software (NIH). Minimal inner diameters of 1,000 myofibers from each mouse were measured.

GNE Myopathy muscle = experiment: Gene expression analysis of muscle (quantitative RT-PCR and microarray); format: in vivo, mice
Experimental: Quantitative RT-PCR and microarray analysis: […] Microarray experiments were carried out using a […] Mouse Whole Genome Bioarray (Applied Microarrays Inc.) at Filgen Inc. The arrays were scanned using a […] Array Scanner (Molecular Devices Inc.). The data were analyzed by using Microarray Data Analysis Tool version 3.2 (Filgen Inc.). For quantitative PCR, TAQMAN® probes were used in combination with the TAQMAN® Gene Expression Master Mix (Applied Biosystems) in a total reaction of 20 μl. STEPONEPLUSTM Real-Time PCR System (Applied Biosystems) was used to quantify mRNA expression. mRNA relative expression was normalized to internal control (GAPDH) and determined as fold change in the average expression value of littermate muscles. The TAQMAN® probes used were as follows: F-box protein 32 (Fbxo32), Mm00499523_m1; tripartite motif-containing 63 (Trim63), Mm01185221_m1; Sulfiredoxin1 homolog (Srxn1), Mm00769566_m1; metallothionein 1 (Mt1), Mm00496660_g1; metallothionein 2 (Mt2), Mm00809556_s1; metallothionein 3 (Mt3), Mm00496661_g1; LC3b, Mm00782868_sH. N-Acetylcysteine (NAC) Treatment Protocols: […] were randomly divided into high dose NAC (n=13), low dose NAC (n=13), or untreated control (n=17) groups. […] There was no difference in water consumption between mice receiving NAC supplemented water or regular drinking water. […] Three littermates groups (high dose NAC; n=7, low dose NAC; n=7, or untreated control; n=6) were treated in the same way.

GNE Myopathy myotubes [4] = experiment: ROS generation under pro-oxidants (H2O2 or menadione), ΔDCF fluorescence; format: cell-based, mice
Experimental: as §1
To evaluate the ROS generation under pro-oxidants, myotubes cultured in each condition were loaded with 5 μM DCFH-DA for 1 h and recovered in the different concentrations of H2O2 or menadione-containing medium. After 30 min incubation in dark at 37° C., the microplate containing cells with pro-oxidants were placed in a plate reader and fluorescence was captured at every 5 min until it reached a plateau. Maximum fluorescence of each well was used for analysis.

Gne−/−hGNED176V-Tg mice [5] = experiment: Motor performance analysis (treadmill performance and endurance tests); format: in vivo; details: vs untreated
Experimental: N-Acetylcysteine (NAC) Treatment Protocols: […] were randomly divided into high dose NAC (n=13), low dose NAC (n=13), or untreated control (n=17) groups. […] There was no difference in water consumption between mice receiving NAC supplemented water or regular drinking water. […] Three littermates groups (high dose NAC; n=7, low dose NAC; n=7, or untreated control; n=6) were treated in the same way. Motor performance analysis: The motor performance was evaluated using treadmill exercise as previously reported (9, 10) with minor modification. Briefly, after 7 days of acclimation on the treadmill, two exercise tests were performed on separate days. […] The time of exhaustion was used to calculate the total distance of the mice ran during the exercise. The endurance exercise consisted of a 60-min treadmill run at 20 m/min with a […] incline, during which the number of beam breaks or rests were recorded. Both tests were done twice with 2 days rest in between.

[6] = HD and LD treated GNE Myopathy muscles

CC(=O)N[C@@H](CS)C(=O)O [NAC, N-acetylcysteine]
Cell viability compared to littermate myotubes (GNE Myopathy myotubes [1]): even better | β-amyloid expression by ELISA in muscle homogenates (β-amyloid): decreased | Mean DCF fluorescence (intracellular ROS generation) (GNE Myopathy myotubes [2]): 191±10 AFU | Mean fiber diameter (Gne−/−hGNED176V-Tg mice [3]; HD group 1.5 g/kg per day, p<0.05 vs untreated 31.7±0.8): 35.2±1.2 μm | Mean fiber diameter (Gne−/−hGNED176V-Tg mice [3]; LD group 0.15 g/kg per day, p<0.01 vs untreated 31.7±0.8): 35.7±0.8 μm | Average fiber diameters in healthy control mice (Gne−/−hGNED176V-Tg mice [3]; some healthy control (littermate) mice with NAC supplement): increased | Upregulation of atrogenes (atrogin-1 and MuRF1) (GNE Myopathy muscle; [6]): recovered | Upregulation of oxidative stress responsive genes (MT1 and MT2) (GNE Myopathy muscle; [6]): recovered | LC3b expression (marker of autophagy) (GNE Myopathy muscle; treated GNE Myopathy muscles, RT-PCR and microarray): recovered as well | Protective effect in the high oxidative stress condition (GNE Myopathy myotubes [4]; GNE Myopathy myotubes, H2O2 or menadione, more evident for menadione): worked effectively | ΔDCF fluorescence compared to littermate myotubes (GNE Myopathy myotubes [4]; treated GNE Myopathy myotubes under menadione exposure): comparable | Treadmill performance and endurance tests (Gne−/−hGNED176V-Tg mice [5]; high dose (HD) 1.5 g/kg per day in drinking water): significantly improved | Motor function (treadmill) (Gne−/−hGNED176V-Tg mice [5]; low dose (LD) 0.15 g/kg per day in drinking water): better motor function
